The values that follow come from PMC7582516, “A Novel Series of [1,2,4]Triazolo[4,3-a]Pyridine Sulfonamides as Potential Antimalarial Agents: In Silico Studies, Synthesis and In Vitro Evaluation” (Molecules, 2020).

Values after ≈ are worked out from the molar mass of the structure shown.

The subject of series [1] is MRC-5 SV2 cells. The experiment in a line: Cytotoxicity assay (resazurin). Type of series: cell-based. To be noted: Homo sapiens, MRC-5 fibroblast cytotoxicity, 72 h. The procedure:
Stock solutions were prepared in 100% DMSO at 20 mg/mL just prior to screening. […] Reference drugs were either obtained from the fine chemical supplier Sigma or from WHO-TDR. The integrated panel of microbial screens and standard screening methodologies was adopted as previously described. All assays were performed in triplicate at the Laboratory of Microbiology, Parasitology and Hygiene at the University of Antwerp, Belgium. […] The selectivity antiprotozoal potential was assessed by simultaneous evaluation of cytotoxicity on a fibroblast (MRC-5) cell line. […] Cell viability was assessed fluorimetrically after 4 h of addition of resazurin. Fluorescence was measured (excitation 550 nm, emission 590 nm) and the results were expressed as % reduction in cell viability compared to control.
A general note: Alamar Blue is a resazurin reagent that responds to reducing activity.

Series [2] in a line: Solubility in DMSO/Water (practical data). It is filed as physicochemical.

By IC50 is commonly meant the point on the concentration scale where inhibition reaches its midpoint. Read a high IC50 as a need for much substance. The term melting point denotes the temperature of the solid-liquid transition.

`O=S(=O)(c1cccn2cnnc12)N(Cc1cccc(Cl)c1)c1cc(F)cc(F)c1` [Compound 8a, N-(3-chlorobenzyl)-N-(3,5-difluorophenyl)-[1,2,4]triazolo[4,3-a]pyridine-8-sulfonamide]: the melting point is 160 to 162 °C. Also, the IC50 in series [1] was more than 64 µg/mL.
In the case of `Cc1cc(C)cc(N(Cc2cc(C)ccc2C)S(=O)(=O)c2cccn3c(C)nnc23)c1` [Compound 8b, N-(2,5-dimethylbenzyl)-N-(3,5-dimethylphenyl)-3-methyl-[1,2,4]triazolo[4,3-a]pyridine-8-sulfonamide], the IC50 in series [1] was found to be 48.5 µg/mL (≈ 112 µM).
In series [1], `COc1ccc(CN(c2cc(C)cc(C)c2)S(=O)(=O)c2cccn3c(C)nnc23)cc1` [Compound 8c, N-(3,5-dimethylphenyl)-N-(4-methoxybenzyl)-3-methyl-[1,2,4]triazolo[4,3-a]pyridine-8-sulfonamide] gave an IC50 of more than 64 µg/mL.
For the compound `COC(=O)c1ccc(CN(c2cccc(C)c2)S(=O)(=O)c2ccc3nnc(C)n3c2)o1` [Compound 8d, Methyl 5-{[3-methyl-N-(3-methylphenyl)-[1,2,4]triazolo[4,3-a]pyridine-6-sulfonamido]methyl}furan-2-carboxylate], the melting point fell in the range of 152 to 154 °C. In addition, in series [1], the half-inhibitory concentration (IC50) is more than 64 µg/mL.
As for `CCc1nnc2ccc(S(=O)(=O)N(Cc3cccc(F)c3)c3ccc(OC)cc3)cn12` [Compound 8e, 3-Ethyl-N-(3-fluorobenzyl)-N-(4-methoxyphenyl)-[1,2,4]triazolo[4,3-a]pyridine-6-sulfonamide], in series [1], it took 18.2 µg/mL (≈ 41.3 µM) to reach half-maximal inhibition (IC50). Besides, in series [2], the Solubility result is reported as “moderately soluble”.
In turn, `Cc1cccc(CN(c2ccc(F)cc2)S(=O)(=O)c2ccc3nnc(C)n3c2)c1` [Compound 8f, N-(4-fluorophenyl)-3-methyl-N-(3-methylbenzyl)-[1,2,4]triazolo[4,3-a]pyridine-6-sulfonamide] yielded a melting point of 104 to 105 °C. In series [1], the IC50 was more than 64 µg/mL.
For `Cc1nnc2ccc(S(=O)(=O)N(Cc3cccc(Cl)c3)c3ccc(F)cc3)cn12` [Compound 8g, N-(3-chlorobenzyl)-N-(4-fluorophenyl)-3-methyl-[1,2,4]triazolo[4,3-a]pyridine-6-sulfonamide], in that order: 107 to 109 °C and more than 64 µg/mL.
For the compound `Cc1nnc2ccc(S(=O)(=O)N(Cc3ccccc3F)c3cccc(Cl)c3)cn12` [Compound 8h, N-(3-chlorophenyl)-N-(2-fluorobenzyl)-3-methyl-[1,2,4]triazolo[4,3-a]pyridine-6-sulfonamide], the 50% inhibitory concentration (IC50) in series [1] was more than 64 µg/mL.
Take `Cc1nnc2ccc(S(=O)(=O)N(Cc3ccc(F)cc3)c3ccc(Cl)cc3)cn12` [Compound 8i, N-(4-chlorophenyl)-N-(4-fluorobenzyl)-3-methyl-[1,2,4]triazolo[4,3-a]pyridine-6-sulfonamide]: the melting point was 198 to 199 °C. Besides, in series [1], the IC50 was more than 64 µg/mL.
In series [1], `O=c1n(Cc2cccc(Cl)c2)nc2c(S(=O)(=O)N3CCCCC3)cccn12` [Compound 13a, 2-(3-Chlorobenzyl)-8-(piperidin-1-ylsulfonyl)-[1,2,4]triazolo[4,3-a]pyridin-3(2H)-one] yielded a concentration for half-maximal inhibition (IC50) of more than 64 µg/mL. Besides, in series [2], the Solubility entry is given as “moderately soluble”.
Regarding `O=c1n(Cc2ccc3c(c2)OCO3)nc2c(S(=O)(=O)N3CCCCC3)cccn12` [Compound 13b, 2-(Benzo[d][1,3]dioxol-5-ylmethyl)-8-(piperidin-1-ylsulfonyl)-[1,2,4]triazolo[4,3-a]pyridin-3(2H)-one], the melting point was 160 to 161 °C. In addition, the half-inhibitory concentration (IC50) in series [1] is more than 64 µg/mL.
For `O=c1n(Cc2cc(F)cc(F)c2)nc2c(S(=O)(=O)N3CCCCC3)cccn12` [Compound 13c, 2-(3,5-Difluorobenzyl)-8-(piperidin-1-ylsulfonyl)-[1,2,4]triazolo[4,3-a]pyridin-3(2H)-one], in that order: 221 to 222 °C and more than 64 µg/mL.
As for `O=c1n(Cc2ccccc2Cl)nc2c(S(=O)(=O)N3CCOCC3)cccn12` [Compound 13d, 2-(2-Chlorobenzyl)-8-(morpholinosulfonyl)-[1,2,4]triazolo[4,3-a]pyridin-3(2H)-one], in series [1], the concentration for half-maximal inhibition (IC50) was more than 64 µg/mL.
On to `O=C1CCCN1c1ccc(Cn2nc3c(S(=O)(=O)N4CCOCC4)cccn3c2=O)cc1` [Compound 13e, 8-(Morpholinosulfonyl)-2-[4-(2-oxopyrrolidin-1-yl)benzyl]-[1,2,4]triazolo[4,3-a]pyridin-3(2H)-one], for which the melting point was 258 to 260 °C (dec.). The compound also registered an IC50 in series [1] of more than 64 µg/mL.
The compound `O=c1n(Cc2ccc(Cl)cc2)nc2ccc(S(=O)(=O)N3CCCCC3)cn12` [Compound 13f, 2-(4-Chlorobenzyl)-6-(piperidin-1-ylsulfonyl)-[1,2,4]triazolo[4,3-a]pyridin-3(2H)-one] displayed a melting point of 173 to 174 °C. This compound also gave an IC50 in series [1] of more than 64 µg/mL.
The compound `Cc1cccc(Cn2nc3ccc(S(=O)(=O)N4CCC(C)CC4)cn3c2=O)c1` [Compound 13g, 2-(3-Methylbenzyl)-6-(4-methylpiperidin-1-ylsulfonyl)-[1,2,4]triazolo[4,3-a]pyridin-3(2H)-one] had a melting point of 145 to 146 °C. This compound also came in with an IC50 in series [1] of more than 64 µg/mL.
Take `CC1CCN(S(=O)(=O)c2ccc3nn(Cc4ccccc4F)c(=O)n3c2)CC1` [Compound 13h, 2-(2-Fluorobenzyl)-6-(4-methylpiperidin-1-ylsulfonyl)-[1,2,4]triazolo[4,3-a]pyridin-3(2H)-one]: the melting point fell in the range of 150 to 151 °C. The same compound returned a concentration for half-maximal inhibition (IC50) in series [1] of more than 64 µg/mL.
The matching figures for `O=c1n(Cc2cccc(F)c2)nc2ccc(S(=O)(=O)N3CCSCC3)cn12` [Compound 13i, 2-(3-Fluorobenzyl)-6-(thiomorpholinosulfonyl)-[1,2,4]triazolo[4,3-a]pyridin-3(2H)-one]: 154 to 155 °C and more than 64 µg/mL.
In the case of `O=c1n(Cc2ccc(F)cc2Cl)nc2ccc(S(=O)(=O)N3CCSCC3)cn12` [Compound 13j, 2-(2-Chloro-4-fluorobenzyl)-6-(thiomorpholinosulfonyl)-[1,2,4]triazolo[4,3-a]pyridin-3(2H)-one], the melting point was in the range of 190 to 191 °C. For the same compound, the IC50 in series [1] was more than 64 µg/mL.
On to `COc1ccc(CSc2nnc3c(S(=O)(=O)N4CCCCC4)cccn23)cc1` [Compound 15a, 3-(4-Methoxybenzylthio)-8-(piperidin-1-ylsulfonyl)-[1,2,4]triazolo[4,3-a]pyridine], for which the melting point lay within 169 to 170 °C. Further, the 50% inhibitory concentration (IC50) in series [1] was more than 64 µg/mL.
For `O=S(=O)(c1cccn2c(SCc3cccc(Br)c3)nnc12)N1CCCCC1` [Compound 15b, 3-(3-Bromobenzylthio)-8-(piperidin-1-ylsulfonyl)-[1,2,4]triazolo[4,3-a]pyridine], in that order: 160 to 162 °C and more than 64 µg/mL.
As to `Cc1ccc(CSc2nnc3c(S(=O)(=O)N4CCCCC4)cccn23)cc1` [Compound 15c, 3-(4-Methylbenzylthio)-8-(piperidin-1-ylsulfonyl)-[1,2,4]triazolo[4,3-a]pyridine], the melting point lay within 155 to 156 °C. Further, in series [1], the concentration for half-maximal inhibition (IC50) is more than 64 µg/mL.
As to `O=S(=O)(c1cccn2c(SCc3cccc(Cl)c3)nnc12)N1CCCC1` [Compound 15d, 3-(3-Chlorobenzylthio)-8-(pyrrolidin-1-ylsulfonyl)-[1,2,4]triazolo[4,3-a]pyridine], the melting point is 143 to 145 °C. Besides, in series [1], the half-inhibitory concentration (IC50) is more than 64 µg/mL.
In the case of `O=S(=O)(c1cccn2c(SCc3ccccc3Cl)nnc12)N1CCCC1` [Compound 15e, 3-(2-Chlorobenzylthio)-8-(pyrrolidin-1-ylsulfonyl)-[1,2,4]triazolo[4,3-a]pyridine], the melting point is 164 to 166 °C. Besides, the concentration for half-maximal inhibition (IC50) in series [1] was more than 64 µg/mL.
`O=S(=O)(c1cccn2c(SCc3ccc(F)cc3)nnc12)N1CCCc2ccccc21` [Compound 15f, 1-(3-(4-Fluorobenzylthio)-[1,2,4]triazolo[4,3-a]pyridin-8-ylsulfonyl)-1,2,3,4-tetrahydroquinoline]: the melting point lay in the range of 113 to 115 °C. This compound came in with an IC50 in series [1] of more than 64 µg/mL.
